Like-named read-outs stand apart in the source and are kept apart here.
Assays:
mastocytosis = settings: cited from earlier work; for major response: more than 50% improvement in symptoms and signs; for overall response rate: sum of CR, MR and PR
[1] = tested on: severe systemic mastocytosis; experiment: post-hoc analysis of pooled phase 2 studies AB06013 and AB04010, cohort simulating severe systemic mastocytosis; assay type: in vivo, human; settings: for Cumulative response rate (≥75 %) from W8 to W24, Hamilton or FIS / Cumulative response rate (≥75 %) from W8 to W24, Flushes or Pruritus: 2-handicap response rate; for Cumulative response rate (≥75 %) from W8 to W24, Hamilton or FIS: at least one handicap from [Hamilton or FIS]; for Cumulative response rate (≥75 %) from W8 to W24, Flushes or Pruritus: at least one handicap from [flushes or pruritus]
[2] = tested on: Ba/F3 cells expressing human or mouse wild-type c-Kit; settings: read-out: IC50, stem cell factor-induced proliferation and c-Kit tyrosine phosphorylation; cited from earlier work
[3] = tested on: Ba/F3 cells expressing the D816V c-Kit mutation; settings: read-out: IC50, proliferation; cited from earlier work
[4] = entire evaluable study population (N=80)
[5] = missing data considered as failure (observed cases after W12)

Nc1nc(Cl)nc2c1ncn2[C@H]1C[C@H](O)[C@@H](CO)O1 [Cladribine]
major response (mastocytosis; [4]): 37% | overall response rate (mastocytosis; [4]): 55% | overall response rate (mastocytosis; patients with ISM (N=22)): 56%

Cc1ccc(NC(=O)c2ccc(CN3CCN(C)CC3)cc2)cc1Nc1nc(-c2cccnc2)cs1 [masitinib, 4-(4-methylpiperazin-1-ylmethyl)-N-[4-methyl-3-(4-pyridin-3ylthiazol-2-ylamino)phenyl]benzamide]
Cumulative response rate (≥75 %) from W8 to W24, Hamilton or FIS [1]: ~10% | Cumulative response rate (≥75 %) from W8 to W24, Hamilton or FIS ([1]; listed as Masitinib): 10.3% | Cumulative response rate (≥75 %) from W8 to W24, Flushes or Pruritus [1]: approximately 40% | Cumulative response rate (≥75 %) from W8 to W24, Flushes or Pruritus ([1]; listed as Masitinib): 38.8% | Overall response ≥ 75% ([1]; Week 12, at least one severe handicap among pruritus, flushes, fatigue or depression at baseline, missing data considered as failure, listed as Masitinib): 25.0% | Overall response ≥ 75% ([1]; Week 12, patients with both pruritus score ≥9 and flushes per week ≥8 at baseline (4 patients, 8 handicaps)): 1/8 (12.5%) | Overall response ≥ 75% ([1]; Week 24, at least one severe handicap among pruritus, flushes, fatigue or depression at baseline, missing data considered as failure): 23.5% | Overall response ≥ 75% ([1]; Week 24, at least one severe handicap among pruritus, flushes, fatigue or depression at baseline, missing data considered as failure, listed as Masitinib): 23.5% | Overall response ≥ 75% ([1]; Week 24, patients with both pruritus score ≥9 and flushes per week ≥8 at baseline (4 patients, 8 handicaps)): 50% | Cumulative response rate (≥75 %) from W8 to W24, Overall Response ([1]; at least one handicap among pruritus, flushes, fatigue or depression, W8, W12, W24): 26.1% | Cumulative response rate (≥75 %) from W8 to W24, FIS only [1, 5]: 8.0% | Cumulative response rate (≥75 %) from W8 to W24, Flushes only [1, 5]: 52.8% | Cumulative response rate (≥75 %) from W8 to W24, Hamilton only [1, 5]: 16.7% | Cumulative response rate (≥75 %) from W8 to W24, Micturition frequency (pollakiuria) only [1, 5]: 1.8% | Cumulative response rate (≥75 %) from W8 to W24, Pruritus only [1, 5]: 28.6% | Cumulative response rate (≥75 %) from W8 to W24, Stool frequency (diarrhea) only [1, 5]: 18.4% | IC50 [2]: 150 ± 80 nM | IC50 [3]: 5000 ± 2000 nM

Cc1ccc(NC(=O)c2ccc(CN3CCN(C)CC3)cc2)cc1Nc1nccc(-c2cccnc2)n1 [imatinib mesilate]
major response (mastocytosis; [4]): 9% | overall response rate (mastocytosis; [4]): 18% | overall response rate (mastocytosis; patients with ISM (N=22)): 14%

NC(=O)NO [hydroxyurea]
major response (mastocytosis; [4]): 0% | overall response rate (mastocytosis; [4]): 19% | overall response rate (mastocytosis; patients with ISM (N=22)): 0%
